Experimental data as given in paper PMC5840523, “Assessment of a pretomanid analogue library for African trypanosomiasis: Hit-to-lead studies on 6-substituted 2-nitro-6,7-dihydro-5H-imidazo[2,1-b][1,3]thiazine 8-oxides” (Bioorganic & Medicinal Chemistry Letters, 2018).
In brackets after ≈: the same amount, converted by molar mass. Like-named read-outs stand apart in the source and are kept apart here.

Assays:
T. b. brucei 427 = T. b. brucei 427 growth inhibition (Scynexis); type: cell-based, Trypanosoma brucei brucei
L929 mouse fibroblasts = assay: Cytotoxicity toward L929 mouse fibroblasts (Scynexis); type: cell-based
Mouse liver S9 stability = type: in vitro ADME; settings: CD-1, mouse, mouse liver S9 subcellular fraction, half-life in mouse liver S9 fraction; read-out: Mouse S9 t1/2
[1] = Kinetic aqueous solubility in pH 7.4 PBS; type: physicochemical
From the text: Table 1 Inhibitory potency, metabolic stability, aqueous solubility, and MDCK-MDR1 cell permeability for 15 screening hits against T. b. brucei. | column: Solubility ^c / (µg/mL)

[2] = Mouse pharmacokinetics (plasma, whole blood, brain); type: in vivo, male CD-1 mice; settings: for bioavailability: from dose normalised AUClast values, read-out: F (oral bioavailability); for Vd: read-out: Vdss
Procedure: In order to determine the suitability of the more permeable hits for in vivo efficacy studies, we first measured their aqueous solubilities, and their tendencies to metabolise, following a 1 h incubation with CD-1 mouse liver S9 subcellular fractions.[14] […] This led us to probe their in vivo pharmacokinetic (PK) profiles in mice, examining concentration levels in plasma, whole blood and brain tissue following both intravenous and oral administration (Table 2; for further experimental details, see the Supporting Information). […]
Mouse Pharmacokinetics. The in-life portion of PK testing was carried out by ViviSource Laboratories, Inc., Mass achusetts, USA, and PK samples were anal ysed by Sc ynexis, Inc.
Test compounds (9, 12, 17, and 19) w er e each administered as single doses to groups of 10 male CD-1 mice by bolus intravenous injection or oral gavage. Intravenous dosing (at a nominal dose of 2 mg/kg) emplo yed a solution vehicle comprising either 20% EtOH, 20% propylene gl ycol, and 30% PEG -400 in normal saline (for powders 9, 17, and 19) or 0.5% (hydrox yprop yl)meth ylcellulose, 0.4% Tween 80, 0.5% benz yl alcohol, and 20% DMSO i n deionised water (for oil 12). […]
in 0.5% methylcellulose, 0.08% Tween 80 in water ( ex cept fo r oil 12, where the formulation additionally contained 20% DMSO). […]

[3] = set-up: method as in PMID 25141257; settings: cited from earlier work
in vitro = settings: dog, MDCK-MDR1, Permeability Papp
T. b. brucei = system: T. b. brucei; set-up: method as in PMID 20439607; settings: read-out: IC50 versus T. b. brucei; cited from earlier work
[4] = late stage HAT patients; cited from earlier work
[5] = male, CD-1, mouse, brain, intravenous, corrected doses 0.5, 1.1, 2.9, 2.0 mg/kg for 9, 12, 17, 19
[6] = male, CD-1, mouse, brain, oral, corrected doses 62, 50, 78, 49 mg/kg for 9, 12, 17, 19
[7] = male, CD-1, mouse, plasma, intravenous, corrected doses 0.5, 1.1, 2.9, 2.0 mg/kg for 9, 12, 17, 19
[8] = male, CD-1, mouse, plasma, oral, corrected doses 62, 50, 78, 49 mg/kg for 9, 12, 17, 19
[9] = male, CD-1, mouse, whole blood, intravenous, corrected doses 0.5, 1.1, 2.9, 2.0 mg/kg for 9, 12, 17, 19
[10] = male, CD-1, mouse, whole blood, oral, corrected doses 62, 50, 78, 49 mg/kg for 9, 12, 17, 19

Which “Selectivity Index” value (T. b. brucei 427; L929 vs T. b. brucei) does the source give for `O=[N+]([O-])c1cn2c(n1)OC[C@@H](NCc1ccc(OC(F)(F)F)cc1)C2` [Compound 17] here?
The value was greater than 13.

And the IC50 (T. b. brucei 427; Trypanosoma brucei, growth inhibition of T. b. brucei 427, mean ± SD)?
The IC50 was 0.78 ± 0.01 µg/mL (≈ 2.18 µM).

What about the IC50 (L929 mouse fibroblasts) of the same compound?
Its IC50 is greater than 10 µg/mL.

What about the half-life (Mouse liver S9 stability) of the same compound?
The half-life was greater than 350 min.

What about the solubility [1] of the same compound?
Its solubility is greater than 72 µg/mL.

What about the “time beyond which exposure above the MIC is inadequate” value ([2]; male, CD-1, mouse, in vivo, po) of the same compound?
The value was roughly 2 h.

What about the half-life ([2]; male, CD-1, mouse, po, 78 mg/kg, over plasma, whole blood, brain, read-out: oral half-life) of the same compound?
Its half-life is 72 to 90 min.

What about the bioavailability ([2]; male, CD-1, mouse, po, brain) of the same compound?
Its bioavailability is 100%.

What about the bioavailability ([2]; male, CD-1, mouse, po, plasma) of the same compound?
The bioavailability was 100%.

And the bioavailability ([2]; male, CD-1, mouse, po, whole blood)?
Its bioavailability is 100%.

And the AUC(0-t) [2, 5]?
Its AUC(0-t) is 962 ng·h/mL.

What about the clearance [2, 5] of the same compound?
Its clearance is 48.3 mL/min/kg.

What about the Vd [2, 5] of the same compound?
Its Vd is 2.3 L/kg.

What about the half-life ([2]; male, CD-1, mouse, brain, intravenous, corrected doses 0.5, 1.1, 2.9, 2.0 mg/kg for 9, 12, 17, 19, read-out: t1/2 (converted)) of the same compound?
The half-life was 15.6 min.

And the AUC(0-t) [2, 6]?
The AUC(0-t) was 50900 ng·h/mL.

What about the Cmax [2, 6] of the same compound?
Its Cmax is 35000 ng/mL.

And the Tmax [2, 6]?
Its Tmax is 30 min.

And the half-life ([2]; male, CD-1, mouse, brain, oral, corrected doses 62, 50, 78, 49 mg/kg for 9, 12, 17, 19, read-out: t1/2 (converted))?
Its half-life is 78 min.

What about the AUC(0-t) [2, 7] of the same compound?
The AUC(0-t) was 418 ng·h/mL.

And the clearance [2, 7]?
Its clearance is 113 mL/min/kg.

What about the Vd [2, 7] of the same compound?
Its Vd is 4.7 L/kg.

What about the half-life ([2]; male, CD-1, mouse, plasma, intravenous, corrected doses 0.5, 1.1, 2.9, 2.0 mg/kg for 9, 12, 17, 19, read-out: t1/2 (converted)) of the same compound?
The half-life was 28.8 min.

And the AUC(0-t) [2, 8]?
The AUC(0-t) was 20500 ng·h/mL.

And the Cmax [2, 8]?
The Cmax was 12000 ng/mL.

And the Tmax [2, 8]?
Its Tmax is 60 min.

What about the half-life ([2]; male, CD-1, mouse, plasma, oral, corrected doses 62, 50, 78, 49 mg/kg for 9, 12, 17, 19, read-out: t1/2 (converted)) of the same compound?
Its half-life is 72 min.

What about the AUC(0-t) [2, 9] of the same compound?
Its AUC(0-t) is 1100 ng·h/mL.

What about the clearance [2, 9] of the same compound?
The clearance was 40 mL/min/kg.

And the Vd [2, 9]?
The Vd was 8.1 L/kg.

And the half-life ([2]; male, CD-1, mouse, whole blood, intravenous, corrected doses 0.5, 1.1, 2.9, 2.0 mg/kg for 9, 12, 17, 19, read-out: t1/2 (converted))?
Its half-life is 558 min.

What about the AUC(0-t) [2, 10] of the same compound?
The AUC(0-t) was 42200 ng·h/mL.

And the Cmax [2, 10]?
The Cmax was 26000 ng/mL.

And the Tmax [2, 10]?
The Tmax was 30 min.

And the half-life ([2]; male, CD-1, mouse, whole blood, oral, corrected doses 62, 50, 78, 49 mg/kg for 9, 12, 17, 19, read-out: t1/2 (converted))?
The half-life was 90 min.

What about the “concentration levels in brain tissue relative to plasma (fold higher)” value ([2]; mouse, in vivo) of the same compound?
The value was 2- to 3 fold.

What about the “oral half-life in mouse lung tissue” value [3] of the same compound?
Its value is 1.3 h.

What about the Papp at 1 h, 3 µM (in vitro) of the same compound?
Its Papp at 1 h, 3 µM is 80.4 ×10⁻⁶ cm/s.

With `O=[N+]([O-])c1cn2c(n1)OC[C@@H](OCc1ccc(OC(F)(F)F)cc1)C2` [Compound 6, pretomanid] as the compound, how does the IC50 (T. b. brucei) read?
Its IC50 is 38 µM.

And the “oral half-life in mouse lung tissue” value [3]?
The value was 4.8 h.

For `Nc1nc(N)nc(Nc2ccc([As]3SCC(CO)S3)cc2)n1` (stereo not shown) [melarsoprol], which “death of patients caused by treatment” value [4] is on record?
Its value is roughly 5%.
